Laboratory results as given in US12084418B2, “Small molecule inhibitors of G(alpha)i2 protein and uses thereof” (Clark Atlanta University, Inc., priority 2020, dated 2024).
“Also recorded” adds a separate entry of the source.

Assays:
PC3 cells [1] = experiment: Transwell migration assay in PC3 cells; format: cell-based, human; conditions: absence of EGF stimulus
PC3 cells [2] = experiment: Cell viability assay (MTS); format: cell-based, human; conditions: 24 hours
PC3 cells [3] = experiment: Transwell migration assay in PC3 cells; format: cell-based, human
Experimental: (§1) Human prostate cancer cell lines (DU145 and PC3) were obtained from American Type Culture Collection (ATCC) (Rockville, MD). DU145 and PC3 are androgen independent cell lines, derived from brain and bone metastatic sites, respectively. They were maintained in Minimum Essential Medium, supplemented with 5% FBS, in a 5% CO2 environment at 37° C. E006AA cells are derived from localized prostate cancer in a patient. These cells were maintained in Dulbecco's Modified Eagle Medium, supplemented with 5% FBS, in a 5% CO2 environment at 37° C.
For biological assays, the compounds were dissolved in DMSO at a starting concentration of 0.05 mM (compound 12) and 0.1 mM (compounds 9a-b, 13 and 14) and then diluted in culture media to the final concentrations used for the assays.
(§2) In vitro cell migration and invasion assays were conducted using 24-well transwell inserts (8 μm). The transwell inserts were coated with […] of rat tail collagen for migration assays, and with 50 μl of a 1:4 Matrigel/Coating buffer solution for invasion assays. Cells were suspended at the appropriate density in appropriate media and treated with the inhibitors, at specific concentrations. For migration assays, EGF was used as a chemoattractant (10 ng/ml) for PC3, DU145, E006AA and SKOV3 cells; 10% FBS was used for MCF7 cells. The plates were incubated at 37° C. for 5 hours (DU145, PC3 and SKOV3), 24 hours (E006AA) or 48 hours (MCF7) for migration assays, and 48 hours for invasion assays. After fixation, the cells were stained with 3 ng/ml of DAPI and images of five non-overlapping fields were captured using Axiovert 200M, Carl Zeiss (Thornwood, NY) microscope. The number of stained nuclei were determined with automatic counting using image analysis software (ZEN 2012; Carl Zeiss). Results were expressed as migration or invasion index defined as: the average number of cells per field for test substance/the average number of cells per field for the medium control.

PC3 cells [4] = experiment: Cell viability assay (MTS); format: cell-based, human; conditions: compound 10 μM, 24 hours
Experimental: FIG. 3C is a graph depicting a viability study of PC3 cells treated for 24 hours with inhibitor compounds 9b, 13 and 14, at 10 μM. MTS assays were conducted for 4 hours and the results were expressed as % of viable treated cells against the control cells. Each bar represents mean±SEM (n=3).
Cell viability assays were performed using CellTiter 96® AQueous One Solution Cell Proliferation Assay (MTS) from Promega, according to the manufacture's protocol. Briefly, 5.0×10^4 cells/well were plated in a 96 well plates and incubated in a 5% CO2 environment at 37° C. overnight. After 24 hours the medium was replaced with fresh medium, containing several compounds at the appropriate concentrations. Diluted DMSO was used as a control. MTS assays were performed after 24 hours and the absorbance read at 490 nm, using a spectrophotometer.

DU145 cells = experiment: Transwell migration assay in DU145 cells; format: cell-based, human; conditions: compound 10 μM
Experimental: as §1
as §2, with “The plates were incubated at 37° C. for 5 hours (DU145, PC3 and SKOV3), 24 hours (E006AA) or 48 hours (MCF7) for migration assays, and 48 hours for invasion assays. After fixation, the cells were stained with 3 ng/ml of DAPI and images of five non-overlapping fields were captured using Axiovert 200M, Carl Zeiss (Thornwood, NY) microscope.” left out

E006AA cells = experiment: Transwell migration assay in E006AA cells; format: cell-based, human; conditions: compound 10 μM
Experimental: as §1
as §2, with “The plates were incubated at 37° C. for 5 hours (DU145, PC3 and SKOV3), 24 hours (E006AA) or 48 hours (MCF7) for migration assays, and 48 hours for invasion assays. After fixation, the cells were stained with 3 ng/ml of DAPI and images of five non-overlapping fields were captured using Axiovert 200M, Carl Zeiss (Thornwood, NY) microscope.” left out

Gαi2 = target: T1, Gαi2 (Homo sapiens, UniProt P04899); experiment: Immunoprecipitation of active Gαi and Western blot with anti-Gαi2 antibody in PC3 cells; format: cell-based; conditions: for activation of Gαi2 (conversion from GDP- to GTP-state): stimulus not given
T1 construct: endogenous in cells; host or cells: PC3 cells
T1 sequence (P04899 whole entry): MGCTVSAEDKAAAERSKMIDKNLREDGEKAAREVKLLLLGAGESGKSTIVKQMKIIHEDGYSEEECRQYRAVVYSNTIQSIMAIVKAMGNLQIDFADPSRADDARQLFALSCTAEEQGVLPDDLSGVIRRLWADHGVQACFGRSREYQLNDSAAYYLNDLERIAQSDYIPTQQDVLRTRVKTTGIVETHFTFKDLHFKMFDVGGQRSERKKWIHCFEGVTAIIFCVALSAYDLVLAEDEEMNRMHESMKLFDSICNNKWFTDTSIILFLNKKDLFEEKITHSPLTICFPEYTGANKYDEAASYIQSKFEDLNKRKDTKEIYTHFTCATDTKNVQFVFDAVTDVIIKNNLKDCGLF
Experimental: PC3 cells (3×10^6 cell/dish) were incubated with or without inhibitor compound 14 (10 μM) for 30 minutes and then treated with EGF (10 ng/ml) or oxytocin (200 nmol/L) for additional 30 minutes. Cells were lysed in ice-cold cell lysis buffer (Cell Signaling Technology) and snap-frozen in liquid nitrogen. Total cell lysates, containing approximately 1000 μg of proteins, were used for immunoprecipitation. The lysates were incubated with 1 μg of anti-active Gαi antibody, overnight at 4° C. Immunocomplexes were collected by centrifugation after incubation with protein A/G-Sepharose beads for 48 h (Santa Cruz Biotechnology) and were analyzed by Western blot analysis with specific anti-Gαi2 antibody (Abcam).
Western blot analyses were performed. Briefly, protein samples (30-35 μg proteins) were separated on 10% SDS-PAGE gels and transferred to polyvinylidene difluoride (PVDF) membranes (Millipore Corp., Bedford, Massachusetts). After blocking, the membranes were incubated with several primary antibodies, at appropriate dilutions (1:500 for Giα2; 1:3000 for α-tubulin) overnight at 4° C. After washing, the blots were incubated with appropriate secondary antibodies and developed in ECL mixture, using Syngene PXi Imaging System, according to the manufacture's manual. α-tubulin was used as loading control.

MCF7 cells = experiment: Transwell migration assay in MCF7 cells; format: cell-based, human; conditions: compound 10 μM, 10% FBS, 48 hours
Experimental: (§3) Human breast adenocarcinoma cell line MCF7 and human ovarian adenocarcinoma cell line SKOV3 were obtained from American Type Culture Collection (ATCC) (Rockville, MD) and maintained in Dulbecco's Modified Eagle Medium, supplemented with 5% FBS, in a 5% CO2 environment at 37° C.
as §2, with “After fixation, the cells were stained with 3 ng/ml of DAPI and images of five non-overlapping fields were captured using Axiovert 200M, Carl Zeiss (Thornwood, NY) microscope.” left out

SKOV3 cells = experiment: Transwell migration assay in SKOV3 cells; format: cell-based, human; conditions: compound 10 μM, EGF 10 ng/ml, 5 hours
Experimental: as §3
as §2, with “After fixation, the cells were stained with 3 ng/ml of DAPI and images of five non-overlapping fields were captured using Axiovert 200M, Carl Zeiss (Thornwood, NY) microscope.” left out

DU145-Gαi2-Q205L cells = experiment: Transwell migration assay in DU145 cells overexpressing constitutively active Gαi2 (Gαi2-Q205L); format: cell-based, human
Experimental: DU145 cells were seeded in 6-well plates at a density of 2.0×10^5 cells per well and transfected with pcDNA3.1-EV and pcDNA3.1-Gαi2-Q205L, using ViaFect™ transfection reagent, according to the manufacturer's protocol. Briefly, media with no antibiotics (200 μl/well) containing 2 μg of plasmids DNA were mixed with the transfection reagent (6 μl/well) and, after 20 minutes, the mixtures were added drop by drop on the cells and the cells were cultured for 48 hours. Then the cells were harvested and used for several assays.
as §2

PC3 cells [5] = experiment: Transwell (Matrigel) invasion assay in PC3 cells; format: cell-based, human; conditions: compound 10 μM, 48 hours
Experimental: as §2

[6] = compound 10 μM, EGF 10 ng/ml, 5 hours
[7] = compound 50 μM, in presence of EGF
[8] = compound 100 μM, in presence of EGF

Structure (SMILES) | migratory capability of PC3 cells (migration index) (PC3 cells [1]; compound 50 μM) | migratory capability of PC3 cells (migration index) (PC3 cells [1]; compound 100 μM) | cell viability (PC3 cells [2]; compound 50 μM) | cell viability (PC3 cells [2]; compound 100 μM) | migratory capability of PC3 cells (migration index) (PC3 cells [3]; [6]) | migratory capability of PC3 cells (migration index) (PC3 cells [3]; [7]) | migratory capability of PC3 cells (migration index) (PC3 cells [3]; [8]) | cell viability (PC3 cells [4]) | EGF-induced migration of DU145 cells (DU145 cells) | EGF-induced migration of E006AA cells (E006AA cells) | activation of Gαi2 (conversion from GDP- to GTP-state) (Gαi2) | migration of MCF7 cells (MCF7 cells) | migration of SKOV3 cells (SKOV3 cells) | EGF-stimulated cell migration of DU145-Gαi2-Q205L cells (DU145-Gαi2-Q205L cells; compound 10 μM, EGF 10 ng/ml) | basal cell migration of DU145-Gαi2-Q205L cells (DU145-Gαi2-Q205L cells; compound 10 μM, basal) | migration of DU145-Gαi2-Q205L cells (DU145-Gαi2-Q205L cells; stimulus and concentration not stated at the place (FIG. 5B)) | invasive capability of PC3 cells (invasion index) (PC3 cells [5]; in response to EGF 10 ng/ml) | invasive capability of PC3 cells (invasion index) (PC3 cells [5]; in response to FBS (5%)) | levels of active Gαi2 after stimulation with OXT (Gαi2; PC3 cells, OXT 200 nmol/L 30 minutes, compound 14 at 10 μM)
C/C(=N\c1ccc(O)cc1)c1sc2ccccc2c1O [Compound 12, (E)-2-(1-((4-hydroxyphenyl)imino)ethyl)benzo[b]thiophen-3-ol, reference compound] | caused a reduction in the migratory capability | caused a reduction in the migratory capability | cytotoxic | cytotoxic | had no effect on the migration | caused a reduction in the migratory capability | caused a reduction in the migratory capability | had no effect on cell viability |  |  |  |  |  |  |  |  |  |  | 
C/C(=N\c1ccc(O)cc1)c1cc2ccccc2s1 [Compound 13, (E)-4-((1-(benzo[b]thiophen-2-yl)ethylidene)amino)phenol] |  |  | cytotoxic | cytotoxic | significantly decreased EGF-induced migratory capability; also recorded: significantly reduced the migratory capability | reduced the migratory capability | reduced the migratory capability | had no effect on cell viability; also recorded: did not affect cell viability | reduced the EGF-induced migration | reduced the EGF-induced migration | impaired activation of Gαi2 |  |  |  |  |  |  |  | 
C/C(=N\c1ccc(O)cc1)c1cc2ccccc2n1C [Compound 14, (E)-4-((1-(1-methyl-1H-indol-2-yl)ethylidene)amino)phenol] |  |  | cytotoxic | cytotoxic | significantly decreased EGF-induced migratory capability; also recorded: significantly reduced the migratory capability | reduced the migratory capability | reduced the migratory capability | had no effect on cell viability; also recorded: did not affect cell viability | reduced the EGF-induced migration | reduced the EGF-induced migration | reduced activation of Gαi2; also recorded: impaired activation of Gαi2 | impaired the migratory capability; also recorded: significantly reduced migration | impaired the migratory capability; also recorded: significantly reduced migration | attenuation | attenuation | significantly reduced migration | significantly reduced; also recorded: inhibited | significantly reduced | the levels of active Gαi2 were reduced
